From patent US20180213790A1, “COMPOSITIONS AND USES THEREOF FOR CONTROLLING ECTOPARASITES IN NON-HUMAN MAMMALS” (priority 2015, published 2018)
Where two headings read alike, the source gives them in different places.

Assays:
[1] = test system: Ctenocephalides felis; conditions: for EC50 (ppm) Total amount of actives (ppm): total of dinotefuran and fipronil; for EC50 (ppm) Dinotefuran: amount of dinotefuran
Method: Insecticidal activity of dinotefuran, fipronil and dinotefuran/fipronil combinations at different ratios was evaluated using an in vitro coated-vial bioassay. Serial dilutions of test compounds, individually or in combination, were conducted with an acetone/triton solution+0.5% DMSO from a dinotefuran starting dose at 100 ppm and from a fipronil starting dose at 50 ppm. Vials were treated with dinotefuran, fipronil, dinotefuran/fipronil (tested at 6 ratios). Vials were capped and allowed to dry for at least 4 hours before the addition of 10 newly emerged (0-7 days old) unfed adult fleas (Ctenocephalides felis). Flea susceptibility was assessed at 6, 24 and 48 hours post-exposure by evaluating mortality. The EC50 and EC90 values were calculated based on Median-Effect Principle (Chu, 2006. Theoretical Basis, Experimental design, and Computerized Simulation of Synergism and Antagonism in drug Combination studies. Pharmacological reviews, 58(3):621-681) using COMPUSYN (version 1.0). EC50 and EC90 are defined as the amount of drugs, which causes respectively a 50% and 90% flea mortality. Combination indexes (CI) at EC50 and EC90 were calculated to characterize the interaction of each combination: synergism (CI<1), antagonism (CI>1) and additive effect (CI=1) and a combination index (CI) values were calculated at 48 hours of exposure to assess the potential for synergistic activity (Chou, Pharmacol. Rev. 2006, 58, 621-681; Chou, Drug combination studies and their synergy quantification using the Chou-Talalay method, Cancer. Res., 2010, 70: 440-446).

[2] = test system: Rhipicephalus sanguineus; experiment: in vitro coated-vial bioassay, activity against ticks; conditions: for mortality at 0.206 ppm / mortality at 0.617 ppm / mortality at 1.852 ppm / mortality at 5.556 ppm / mortality at 16.667 ppm / mortality at 50 ppm: Rhipicephalus sanguineus; for mortality at 0.206 ppm: D 0.000 ppm + F 0.206 ppm; for mortality at 0.617 ppm: D 0.000 ppm + F 0.617 ppm; for mortality at 1.852 ppm: D 0.000 ppm + F 1.852 ppm; for mortality at 5.556 ppm: D 0.000 ppm + F 5.556 ppm; for mortality at 16.667 ppm: D 0.000 ppm + F 16.667 ppm; for mortality at 50 ppm: D 0.000 ppm + F 50.000 ppm; for EC50 (ppm) Total amount of actives (ppm): total of dinotefuran and fipronil
Method: Tick susceptibility was assessed at 12, 24 and 48 hours post-exposure by evaluating mortality.

[3] = 12 H, read-out: Mortality (%) 12 H
[4] = 24 H, read-out: Mortality (%) 24 H
[5] = 48 H, read-out: Mortality (%) 48 H

## N#Cc1nn(-c2c(Cl)cc(C(F)(F)F)cc2Cl)c(N)c1[S+]([O-])C(F)(F)F (racemic) [D:F = 0:1, (RS)-5-amino-1-[2,6-dichloro-4-(trifluoromethyl)phenyl]-4-(trifluoromethylsulfinyl)-1H-pyrazole-3-carbonitrile]
[1]; Table 2, fleas, amount of fipronil, alone or in the combination
  EC50 (ppm) Fiproml: 13.83 ppm
[1]; Table 2, fleas
  EC50 (ppm) Total amount of actives (ppm): 13.83 ppm
[2]; [3]
  mortality at 0.206 ppm: 0%
  mortality at 0.617 ppm: 0%
  mortality at 1.852 ppm: 0%
  mortality at 5.556 ppm: 0%
  mortality at 16.667 ppm: 60%
  mortality at 50 ppm: 60%
[2]; [4]
  mortality at 0.206 ppm: 0%
  mortality at 0.617 ppm: 0%
  mortality at 1.852 ppm: 0%
  mortality at 5.556 ppm: 20%
  mortality at 16.667 ppm: 80%
  mortality at 50 ppm: 100%
[2]; [5]
  mortality at 0.206 ppm: 0%
  mortality at 0.617 ppm: 10%
  mortality at 1.852 ppm: 0%
  mortality at 5.556 ppm: 60%
  mortality at 16.667 ppm: 100%
  mortality at 50 ppm: 100%
[2]; Table 5, ticks, amount of fipronil
  EC50 (ppm) Fipronil: 3.77 ppm
[2]; Table 5, ticks
  EC50 (ppm) Total amount of actives (ppm): 3.77 ppm

## CN/C(=N\[N+](=O)[O-])NCC1CCOC1 (stereo not drawn) [D:F = 1:0, 2-methyl-l-nitro-3-[(tetrahydro-3-furanyl)methyl] guanidine]
[1]
  activity against fleas (in words): more potent than fipronil
[1]; D 0.412 ppm + F 0.000 ppm
  Mortality (%) 6 H: 0%
  Mortality (%) 24 H: 10%
  Mortality (%) 48 H: 0%
[1]; D 1.235 ppm + F 0.000 ppm
  Mortality (%) 6 H: 0%
  Mortality (%) 24 H: 10%
  Mortality (%) 48 H: 20%
[1]; D 3.704 ppm + F 0.000 ppm
  Mortality (%) 6 H: 0%
  Mortality (%) 24 H: 20%
  Mortality (%) 48 H: 50%
[1]; D 11.111 ppm + F 0.000 ppm
  Mortality (%) 6 H: 10%
  Mortality (%) 24 H: 30%
  Mortality (%) 48 H: 60%
[1]; D 33.333 ppm + F 0.000 ppm
  Mortality (%) 6 H: 0%
  Mortality (%) 24 H: 10%
  Mortality (%) 48 H: 80%
[1]; D 100.000 ppm + F 0.000 ppm
  Mortality (%) 6 H: 40%
  Mortality (%) 24 H: 80%
  Mortality (%) 48 H: 90%
[1]; Table 2, fleas, alone or in the combination
  EC50 (ppm) Dinotefuran: 8.05 ppm
[1]; Table 2, fleas
  EC50 (ppm) Total amount of actives (ppm): 8.05 ppm
[1]; Table 3 (head EC50, text says EC90), fleas
  EC50 (ppm) Dinotefuran: 50.87 ppm
[2]
  acaricidal activity against ticks (in words): not active
[2]; D 0.412 ppm + F 0.000 ppm, 12 H
  Mortality (%) 12 H: 0%
[2]; D 0.412 ppm + F 0.000 ppm, 24 H
  Mortality (%) 24 H: 0%
[2]; D 0.412 ppm + F 0.000 ppm, 48 H
  Mortality (%) 48 H: 0%
[2]; D 1.235 ppm + F 0.000 ppm, 12 H
  Mortality (%) 12 H: 0%
[2]; D 1.235 ppm + F 0.000 ppm, 24 H
  Mortality (%) 24 H: 0%
[2]; D 1.235 ppm + F 0.000 ppm, 48 H
  Mortality (%) 48 H: 0%
[2]; D 3.704 ppm + F 0.000 ppm, 12 H
  Mortality (%) 12 H: 0%
[2]; D 3.704 ppm + F 0.000 ppm, 24 H
  Mortality (%) 24 H: 0%
[2]; D 3.704 ppm + F 0.000 ppm, 48 H
  Mortality (%) 48 H: 0%
[2]; D 11.111 ppm + F 0.000 ppm, 12 H
  Mortality (%) 12 H: 0%
[2]; D 11.111 ppm + F 0.000 ppm, 24 H
  Mortality (%) 24 H: 0%
[2]; D 11.111 ppm + F 0.000 ppm, 48 H
  Mortality (%) 48 H: 0%
[2]; D 33.333 ppm + F 0.000 ppm, 12 H
  Mortality (%) 12 H: 0%
[2]; D 33.333 ppm + F 0.000 ppm, 24 H
  Mortality (%) 24 H: 0%
[2]; D 33.333 ppm + F 0.000 ppm, 48 H
  Mortality (%) 48 H: 0%
[2]; D 100.000 ppm + F 0.000 ppm, 12 H
  Mortality (%) 12 H: 0%
[2]; D 100.000 ppm + F 0.000 ppm, 24 H
  Mortality (%) 24 H: 0%
[2]; D 100.000 ppm + F 0.000 ppm, 48 H
  Mortality (%) 48 H: 0%
[2]; Table 5, ticks, amount of dinotefuran
  EC50 (ppm) Dinotefuran: >100 ppm
[2]; Table 5, ticks
  EC50 (ppm) Total amount of actives (ppm): 100 ppm
